target: T1, Solute carrier family 12 member 5 (Homo sapiens, UniProt Q9H2X9); experiment: concentration-response of KCC2 transport modulators – cell-based, HEK293 KCC2, FluoZin-2 fluorescence, dose response (AID 1736); settings: not given
T1 sequence (Q9H2X9 whole entry): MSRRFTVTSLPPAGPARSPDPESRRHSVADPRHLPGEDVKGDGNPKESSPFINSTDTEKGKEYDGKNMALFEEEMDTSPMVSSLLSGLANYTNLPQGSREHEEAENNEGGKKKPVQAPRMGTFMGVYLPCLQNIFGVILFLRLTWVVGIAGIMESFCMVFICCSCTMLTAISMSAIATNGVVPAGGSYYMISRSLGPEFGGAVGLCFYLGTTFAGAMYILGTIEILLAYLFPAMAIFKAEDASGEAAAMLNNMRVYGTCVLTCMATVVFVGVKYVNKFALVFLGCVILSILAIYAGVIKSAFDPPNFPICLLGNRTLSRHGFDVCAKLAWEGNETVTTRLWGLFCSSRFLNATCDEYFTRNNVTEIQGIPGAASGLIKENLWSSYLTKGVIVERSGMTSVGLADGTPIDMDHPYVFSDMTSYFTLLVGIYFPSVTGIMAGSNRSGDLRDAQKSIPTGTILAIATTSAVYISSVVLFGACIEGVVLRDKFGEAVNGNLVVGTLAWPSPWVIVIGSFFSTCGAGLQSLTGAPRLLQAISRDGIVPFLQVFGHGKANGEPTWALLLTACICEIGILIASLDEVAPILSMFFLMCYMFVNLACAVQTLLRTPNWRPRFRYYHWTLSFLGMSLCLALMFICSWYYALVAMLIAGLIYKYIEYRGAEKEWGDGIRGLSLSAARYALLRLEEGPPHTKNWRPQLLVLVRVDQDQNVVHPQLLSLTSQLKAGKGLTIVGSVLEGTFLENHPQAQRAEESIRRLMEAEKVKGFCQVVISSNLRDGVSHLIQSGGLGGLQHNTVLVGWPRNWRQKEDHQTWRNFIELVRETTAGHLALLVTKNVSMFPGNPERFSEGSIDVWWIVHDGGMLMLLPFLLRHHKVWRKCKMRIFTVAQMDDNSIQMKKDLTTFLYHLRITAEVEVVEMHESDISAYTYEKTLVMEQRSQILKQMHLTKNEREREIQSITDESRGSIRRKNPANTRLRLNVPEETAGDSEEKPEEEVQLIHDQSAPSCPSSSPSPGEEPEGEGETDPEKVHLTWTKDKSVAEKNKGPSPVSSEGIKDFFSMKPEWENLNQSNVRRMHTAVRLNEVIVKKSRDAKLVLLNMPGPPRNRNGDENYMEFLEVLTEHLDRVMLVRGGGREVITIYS

SMILES | EC50
CCOC(=O)c1c(C)[nH]c(N=Nc2ccccc2)c1C [(5Z)-2,4-dimethyl-5-(phenylhydrazinylidene)-3-pyrrolecarboxylic acid ethyl ester] | 6.54 µM
Cc1noc(C)c1S(=O)(=O)N1CCC(C(=O)N2CCN(c3ccc(F)cc3)CC2)CC1 [1-({1-[(3,5-dimethylisoxazol-4-yl)sulfonyl]piperidin-4-yl}carbonyl)-4-(4-fluorophenyl)piperazine] | 7.58 µM
O=C(CSc1nnc(-c2ccc(O)cc2)n1Cc1ccco1)N1CCc2ccccc2C1 [1-(3,4-Dihydro-1H-isoquinolin-2-yl)-2-[4-furan-2-ylmethyl-5-(4-hydroxy-phenyl)-4H-[1,2,4]triazol-3-ylsulfanyl]-ethanone] | 15.3 µM
O=C(CSc1nnc(Cc2ccccc2)o1)c1ccc(F)cc1 [1-(4-fluorophenyl)-2-[[5-(phenylmethyl)-1,3,4-oxadiazol-2-yl]sulfanyl]ethanone] | 3.85 µM
O=C(CN1C(=O)NC2(CCCC2)C1=O)Nc1nc(-c2ccc(F)cc2)cs1 [2-(2,4-diketo-1,3-diazaspiro[4.4]nonan-3-yl)-N-[4-(4-fluorophenyl)thiazol-2-yl]acetamide] | 0.231 µM
O=C(NC(=S)NNC(=O)c1cnccn1)c1ccc(Cl)cc1 [4-Chloro-N-[N'-(pyrazine-2-carbonyl)-hydrazinocarbothioyl]-benzamide] | 13 µM
CC(=NNC(=O)c1ccc(Cl)c(Cl)c1)c1ccc(Br)s1 [N-[1-(5-bromo-2-thiophenyl)ethylideneamino]-3,4-dichlorobenzamide] | 0.48 µM
O=C(Cn1cnc2c(nnn2Cc2ccc(F)cc2)c1=O)NCc1ccc2c(c1)OCO2 [2-[3-(4-fluorobenzyl)-7-keto-triazolo[4,5-d]pyrimidin-6-yl]-N-piperonyl-acetamide] | 2.61 µM
COc1cccc(Nc2nnc(S)s2)c1 [5-(3-methoxyanilino)-3H-1,3,4-thiadiazole-2-thione] | 2.8 µM
O=C(CSc1nnc(CNc2ccccc2)o1)N1CCCc2ccccc21 [1-(3,4-Dihydro-2H-quinolin-1-yl)-2-(5-phenylaminomethyl-[1,3,4]oxadiazol-2-ylsulfanyl)-ethanone] | 34.6 µM
CCCCNc1cc(C(=O)O)cc(S(N)(=O)=O)c1Oc1ccccc1 [Fordiuran] | 0.00108 µM
c1ccc(-n2cnc3cc(NCc4ccncc4)ccc32)cc1 [(1-phenylbenzimidazol-5-yl)-(4-pyridylmethyl)amine] | 5.54 µM
O=C(C[n+]1ccccc1)c1ccc(-c2ccccc2)cc1 [1-(4-phenylphenyl)-2-(1-pyridin-1-iumyl)ethanone;bromide] | 43.6 µM

Next, values leading:

EC50 | SMILES
4.25 µM | CCc1cc(C(=O)N2CCCC(CNC(=O)c3ccc(-c4ccccc4)cc3)C2)no1 (centres undefined) [MLS000731765]
101 µM | COc1ccccc1-n1cnc2cc(NS(=O)(=O)c3ccccc3)ccc21 [MLS000032522]
0.0295 µM | O=C(NNc1nc(-c2ccccc2)cs1)c1ccccc1 [MLS000547345]
0.252 µM | O=C(NNc1nc(-c2ccccc2)cs1)c1cccs1 [MLS000858987]
25.6 µM | CCC(Sc1nc(C)cc(=O)[nH]1)C(=O)Nc1sc2c(c1C#N)CCCC2 (centres undefined) [MLS000112919]
14.1 µM | O=[N+]([O-])c1ccccc1C=C[CH+][N-]n1c(-c2ccc(Cl)cc2)n[nH]c1=S [MLS000555506]
1.99 µM | Cc1nn(-c2ccc(F)cc2)c(C)c1NS(=O)(=O)c1ccc2ccccc2c1 [MLS000565745]
155 µM | CCOC(=O)c1sc(Nc2nc3c(OC)cccc3s2)nc1C [SMR000027213]
3.68 µM | CN1/C(=C\C(=S)NC(=O)c2cccc(Br)c2)C(C)(C)c2ccccc21 [SMR000254682]

same assay, conditions: inactive by the depositor's call

EC50 | SMILES
233 µM | Cc1cc(Cl)ccc1Oc1ccccc1C(=O)CC#N [3-[2-(4-chloranyl-2-methyl-phenoxy)phenyl]-3-oxidanylidene-propanenitrile]
13.2 µM | COc1ccc(C(c2nnnn2Cc2cccs2)N2CCN(c3ccccc3F)CC2)cc1 (centres undefined) [1-(2-Fluoro-phenyl)-4-[(4-methoxy-phenyl)-(1-thiophen-2-ylmethyl-1H-tetrazol-5-yl)-methyl]-piperazine]

From BindingDB's records for doi:10.7270/Q2Q52N1X (Vanderbilt Screening Center for GPCRs, Ion Channels and …, 2009)
